According to ChEMBL document CHEMBL1201862, “PubChem BioAssay data set” (2004):
The source made the active and inactive calls.

Experiments:
[1] = molecular target: Nuclear receptor subfamily 0 group B member 1 (Homo sapiens, UniProt P51843); test: Luminescence-based cell-based high throughput dose response assay for inhibitors of the orphan nuclear receptor subfamily 0, group B, member 1 (DAX1; NR0B1). [Related pubchem assays (depositor defined):AID504766, AID504790]; type: functional
[2] = molecular target: T1, Intestinal-type alkaline phosphatase (Homo sapiens, UniProt P09923); test: Dose Response confirmation of uHTS hits from a small molecule inhibitors of human intestinal alkaline phosphatase via a luminescent assay. [Related pubchem assays (depositor defined):AID2544, AID2574]; type: functional
[3] = viability loss in HeLa cells – cytotoxicity control for MgcRacGAP inhibitor project, dose response (AID 624300); type: functional
[4] = molecular target: T2, Rac GTPase-activating protein 1 (Homo sapiens, UniProt Q9H0H5); test: blockers of MgcRacGAP-driven Rac1 GTP hydrolysis – biochemical, ADP Hunter fluorescence, primary and confirmatory, confirmation (AID 624330); type: functional
T2 sequence (Q9H0H5 whole entry): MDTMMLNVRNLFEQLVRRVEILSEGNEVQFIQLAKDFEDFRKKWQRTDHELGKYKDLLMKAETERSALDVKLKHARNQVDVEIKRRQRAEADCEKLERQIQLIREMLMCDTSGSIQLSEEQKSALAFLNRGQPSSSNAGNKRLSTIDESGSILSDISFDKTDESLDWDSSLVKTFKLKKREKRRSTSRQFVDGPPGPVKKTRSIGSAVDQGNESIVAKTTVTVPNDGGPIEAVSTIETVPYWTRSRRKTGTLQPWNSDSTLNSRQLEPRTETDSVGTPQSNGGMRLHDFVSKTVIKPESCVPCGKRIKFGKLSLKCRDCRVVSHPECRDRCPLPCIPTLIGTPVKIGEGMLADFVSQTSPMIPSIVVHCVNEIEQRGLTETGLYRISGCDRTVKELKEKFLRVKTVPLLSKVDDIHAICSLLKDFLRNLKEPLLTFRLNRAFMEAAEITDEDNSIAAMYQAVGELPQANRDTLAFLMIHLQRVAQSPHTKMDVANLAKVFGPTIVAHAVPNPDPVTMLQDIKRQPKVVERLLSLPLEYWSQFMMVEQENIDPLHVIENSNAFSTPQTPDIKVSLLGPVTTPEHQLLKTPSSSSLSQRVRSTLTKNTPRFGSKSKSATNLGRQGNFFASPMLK

[5] = molecular target: T3, Alkaline phosphatase, tissue-nonspecific isozyme (Homo sapiens, UniProt P05186); test: inhibition of tissue-nonspecific alkaline phosphatase – biochemical, dose response (AID 488882); type: functional
T3 sequence (P05186 whole entry): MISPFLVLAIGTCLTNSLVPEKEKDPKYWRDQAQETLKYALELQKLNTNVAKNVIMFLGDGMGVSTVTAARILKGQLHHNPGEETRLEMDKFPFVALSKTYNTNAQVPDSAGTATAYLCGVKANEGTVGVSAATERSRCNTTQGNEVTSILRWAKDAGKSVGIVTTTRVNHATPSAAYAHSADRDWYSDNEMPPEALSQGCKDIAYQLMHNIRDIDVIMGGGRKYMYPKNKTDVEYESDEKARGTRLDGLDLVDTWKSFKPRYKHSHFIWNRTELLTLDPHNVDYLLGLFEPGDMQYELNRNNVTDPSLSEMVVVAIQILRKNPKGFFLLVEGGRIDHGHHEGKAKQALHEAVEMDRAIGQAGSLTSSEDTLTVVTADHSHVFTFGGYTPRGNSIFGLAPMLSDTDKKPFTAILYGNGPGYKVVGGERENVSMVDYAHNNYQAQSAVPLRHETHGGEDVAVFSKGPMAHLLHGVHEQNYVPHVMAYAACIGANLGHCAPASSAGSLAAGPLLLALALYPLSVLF

HEK293 = test: cells; type: functional, cell-based; details: Homo sapiens
[6] = molecular target: Intestinal-type alkaline phosphatase (Mus musculus, UniProt P24822); test: PubChem AID 488874; type: functional
[7] = molecular target: T1, Intestinal-type alkaline phosphatase; test: inhibition of human intestinal alkaline phosphatase – biochemical, luminescent, uHTS hits, set 2, dose response (AID 488793); type: functional
Trypsin = Trypsin (Sus scrofa, UniProt P00761); test: trypsin protease activity blockade – biochemical, quenched peptide fluorescence, cherry-pick, selectivity assay for Rce1 protease inhibitor project, dose response (AID 488789)
CAAX prenyl protease 2 = molecular target: T4, CAAX prenyl protease 2 (Homo sapiens, UniProt Q9Y256); test: inhibition of Ras-converting CAAX protease Rce1 – biochemical, yeast membranes, quenched-peptide fluorescence, cherry-pick, dose response (AID 588849)
T4 sequence (Q9Y256 whole entry): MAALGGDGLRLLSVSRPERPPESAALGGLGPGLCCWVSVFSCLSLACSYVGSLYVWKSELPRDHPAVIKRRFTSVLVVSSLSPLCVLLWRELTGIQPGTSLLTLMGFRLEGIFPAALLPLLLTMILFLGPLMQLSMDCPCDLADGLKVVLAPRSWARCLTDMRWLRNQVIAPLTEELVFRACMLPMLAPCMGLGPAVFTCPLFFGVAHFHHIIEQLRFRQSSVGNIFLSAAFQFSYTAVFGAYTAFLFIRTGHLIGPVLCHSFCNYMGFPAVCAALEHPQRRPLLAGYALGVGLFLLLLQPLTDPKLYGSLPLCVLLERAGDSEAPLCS

CAAX prenyl protease 1 = CAAX prenyl protease 1 (Saccharomyces cerevisiae S288c, UniProt P47154); test: yeast CAAX protease Ste24 inhibition – biochemical, S. cerevisiae, plate reader, cherry-pick, dose response (AID 488815)
Jurkat = test: blockers of NF-kB activation in T cells – Jurkat, luciferase reporter, luminescence, B- and T-cell, dose response (AID 489004); type: functional, cell-based; details: Homo sapiens;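 also: NF-kB luciferase reporter Jurkat cells stimulated with PMA plus ionomycin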
[8] = molecular target: Neuropeptide Y receptor type 2 (Homo sapiens, UniProt P49146); test: IC50 for human NPY-Y2 blockade – cell-based, counter-screen for NPY-Y1 antagonist project, dose response (AID 1278); type: functional
[9] = HEK-293T viability loss, compound-treated – cell-based, uHTS hits, cytotoxicity control for B/T-cell NF-kB inhibitor project, dose response (AID 489019); type: functional;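 also: IC50 reflects cytotoxicity as loss of cell viability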
[10] = molecular target: Neuropeptide Y receptor type 1 (Homo sapiens, UniProt P25929); test: IC50 of human NPY-Y1 blockers – cell-based, dose response (AID 1277); type: functional
INS1 = test: INS-1E survival protection against cytokine death – cell-based, luminescence, retest, dose response (AID 449756); type: functional; details: Rattus norvegicus;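 also: cell death triggered by IL-1 beta plus TNF-alpha plus IFN-gamma mixture; protective hits raise ATP signal compared with cytokine alone wells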
[11] = molecular target: sn-1-specific diacylglycerol lipase ABHD11 (Mus musculus, UniProt Q8K4F5); test: Late stage assay provider results from the probe development effort to identify inhibitors of LYPLA1: fluorescence-based cell-based gel-based Activity-Based Protein Profiling (ABPP) IC50 for anti-target ABHD11. [Related pubchem assays (depositor defined):AID2174, AID2177, AID2202, AID2203, AID2232, AID2233, AID493105, AID493108, AID493109, AID493110, AID493111, AID493154, AID493161, AID504892]; type: functional
Cytochrome P450 2C9 = Cytochrome P450 2C9 (Homo sapiens, UniProt P11712)
Cytochrome P450 1A2 = molecular target: T5, Cytochrome P450 1A2 (Homo sapiens, UniProt P05177);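 also: PubChem cytochrome P450 panel assay, CYP1A2 panel member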
T5 sequence (P05177 whole entry): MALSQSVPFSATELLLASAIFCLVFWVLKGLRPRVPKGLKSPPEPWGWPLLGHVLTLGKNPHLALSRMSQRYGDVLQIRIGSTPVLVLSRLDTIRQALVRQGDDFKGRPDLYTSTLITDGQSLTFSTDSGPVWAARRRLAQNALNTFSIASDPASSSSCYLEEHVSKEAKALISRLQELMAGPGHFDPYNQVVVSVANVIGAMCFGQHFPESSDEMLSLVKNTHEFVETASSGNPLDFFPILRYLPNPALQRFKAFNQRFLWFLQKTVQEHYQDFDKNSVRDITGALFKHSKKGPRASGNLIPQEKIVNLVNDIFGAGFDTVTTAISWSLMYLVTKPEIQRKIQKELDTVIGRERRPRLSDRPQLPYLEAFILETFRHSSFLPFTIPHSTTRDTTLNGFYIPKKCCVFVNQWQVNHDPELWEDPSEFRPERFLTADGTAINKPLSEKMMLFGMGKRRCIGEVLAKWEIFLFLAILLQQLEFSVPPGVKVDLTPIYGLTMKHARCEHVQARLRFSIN

[12] = molecular target: T6, Ubiquitin-conjugating enzyme E2 N (Homo sapiens, UniProt P61088); type: functional;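 also: Dose-response confirmation in a TR-FRET assay detecting UBC13-driven polyubiquitin chain formation, inhibition measured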
T6 sequence (P61088 whole entry): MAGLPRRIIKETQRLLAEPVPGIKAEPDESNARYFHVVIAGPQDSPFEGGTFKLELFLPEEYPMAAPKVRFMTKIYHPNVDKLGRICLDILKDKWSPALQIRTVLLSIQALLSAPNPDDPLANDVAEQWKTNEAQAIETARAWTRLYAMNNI

Cytochrome P450 2C19 = Cytochrome P450 2C19 (Homo sapiens, UniProt P33261); test: Cytochrome panel assay with activity outcomes. Panel member name: p450-cyp2c19 Compounds with AC50 equal or less than 10 uM are considered active; type: functional
Sequence of Cytochrome P450 2C19 (P33261 whole entry): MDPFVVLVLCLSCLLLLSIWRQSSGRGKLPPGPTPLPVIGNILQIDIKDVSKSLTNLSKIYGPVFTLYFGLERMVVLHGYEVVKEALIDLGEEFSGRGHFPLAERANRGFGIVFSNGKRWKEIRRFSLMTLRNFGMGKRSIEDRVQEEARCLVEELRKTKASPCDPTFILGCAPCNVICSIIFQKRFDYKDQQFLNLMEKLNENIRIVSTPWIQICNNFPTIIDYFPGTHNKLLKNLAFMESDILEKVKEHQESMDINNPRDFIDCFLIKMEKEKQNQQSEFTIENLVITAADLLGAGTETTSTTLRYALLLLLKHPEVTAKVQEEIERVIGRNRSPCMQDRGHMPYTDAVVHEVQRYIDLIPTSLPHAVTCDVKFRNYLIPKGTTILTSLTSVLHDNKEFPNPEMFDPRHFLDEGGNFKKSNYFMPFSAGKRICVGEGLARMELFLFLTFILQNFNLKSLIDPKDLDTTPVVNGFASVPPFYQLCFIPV

T1 sequence (P09923 whole entry): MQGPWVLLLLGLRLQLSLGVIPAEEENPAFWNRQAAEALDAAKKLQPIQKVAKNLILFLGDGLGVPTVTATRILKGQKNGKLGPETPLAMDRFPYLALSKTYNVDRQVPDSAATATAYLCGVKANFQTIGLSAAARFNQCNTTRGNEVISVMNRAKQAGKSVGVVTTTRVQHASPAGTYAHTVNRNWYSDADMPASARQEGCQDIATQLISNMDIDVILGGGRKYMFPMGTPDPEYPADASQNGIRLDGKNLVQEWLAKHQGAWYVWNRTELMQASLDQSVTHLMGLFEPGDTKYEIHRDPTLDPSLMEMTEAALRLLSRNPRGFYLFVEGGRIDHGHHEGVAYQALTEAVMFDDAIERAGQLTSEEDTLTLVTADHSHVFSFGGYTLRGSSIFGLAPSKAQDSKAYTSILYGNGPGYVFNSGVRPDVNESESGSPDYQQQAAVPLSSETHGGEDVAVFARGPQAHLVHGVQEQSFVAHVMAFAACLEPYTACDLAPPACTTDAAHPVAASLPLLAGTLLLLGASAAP
Sequence of Cytochrome P450 2C9 (P11712 whole entry): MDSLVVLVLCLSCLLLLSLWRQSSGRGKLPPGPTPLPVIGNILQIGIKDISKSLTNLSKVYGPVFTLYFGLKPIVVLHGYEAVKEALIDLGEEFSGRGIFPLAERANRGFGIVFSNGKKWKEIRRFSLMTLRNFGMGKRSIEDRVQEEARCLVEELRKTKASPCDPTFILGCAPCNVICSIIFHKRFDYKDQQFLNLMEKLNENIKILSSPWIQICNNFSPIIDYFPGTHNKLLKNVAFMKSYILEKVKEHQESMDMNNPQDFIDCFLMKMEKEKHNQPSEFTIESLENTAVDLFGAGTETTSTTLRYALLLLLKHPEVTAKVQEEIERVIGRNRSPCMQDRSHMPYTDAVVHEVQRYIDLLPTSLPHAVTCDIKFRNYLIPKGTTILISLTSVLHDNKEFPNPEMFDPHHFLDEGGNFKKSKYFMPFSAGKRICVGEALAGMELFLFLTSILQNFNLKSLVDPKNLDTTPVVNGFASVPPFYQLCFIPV
Sequence of Trypsin (P00761 whole entry): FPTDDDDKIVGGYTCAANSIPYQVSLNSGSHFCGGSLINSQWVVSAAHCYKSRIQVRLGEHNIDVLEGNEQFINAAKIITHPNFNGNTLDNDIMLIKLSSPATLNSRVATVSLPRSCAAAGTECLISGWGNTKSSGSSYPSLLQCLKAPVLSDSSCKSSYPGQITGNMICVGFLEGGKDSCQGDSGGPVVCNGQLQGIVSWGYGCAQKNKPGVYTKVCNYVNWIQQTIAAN
Sequence of Neuropeptide Y receptor type 2 (P49146 whole entry): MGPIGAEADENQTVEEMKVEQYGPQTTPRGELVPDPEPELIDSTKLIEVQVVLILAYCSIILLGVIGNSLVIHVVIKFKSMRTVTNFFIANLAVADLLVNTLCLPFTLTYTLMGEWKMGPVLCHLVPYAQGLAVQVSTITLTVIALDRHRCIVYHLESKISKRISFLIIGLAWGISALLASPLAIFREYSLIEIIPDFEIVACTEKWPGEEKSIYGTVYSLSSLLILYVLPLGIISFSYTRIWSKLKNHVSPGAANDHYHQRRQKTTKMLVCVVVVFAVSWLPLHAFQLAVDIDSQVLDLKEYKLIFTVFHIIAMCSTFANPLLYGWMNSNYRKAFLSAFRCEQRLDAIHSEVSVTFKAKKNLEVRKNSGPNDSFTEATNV
Sequence of CAAX prenyl protease 1 (P47154 whole entry): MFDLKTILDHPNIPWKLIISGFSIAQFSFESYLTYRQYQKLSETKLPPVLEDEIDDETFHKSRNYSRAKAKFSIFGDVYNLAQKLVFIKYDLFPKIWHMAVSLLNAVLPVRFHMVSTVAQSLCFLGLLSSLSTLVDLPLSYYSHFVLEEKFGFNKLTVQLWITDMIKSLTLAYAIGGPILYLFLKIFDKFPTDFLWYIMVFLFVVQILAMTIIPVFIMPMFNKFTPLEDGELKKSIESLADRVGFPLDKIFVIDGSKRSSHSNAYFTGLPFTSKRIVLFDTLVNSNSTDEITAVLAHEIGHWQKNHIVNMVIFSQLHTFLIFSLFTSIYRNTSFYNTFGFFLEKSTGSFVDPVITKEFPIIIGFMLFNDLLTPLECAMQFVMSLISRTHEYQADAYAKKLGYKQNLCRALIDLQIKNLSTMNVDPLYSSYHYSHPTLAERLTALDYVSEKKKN
Sequence of Intestinal-type alkaline phosphatase (Mus musculus, UniProt P24822) (P24822 whole entry): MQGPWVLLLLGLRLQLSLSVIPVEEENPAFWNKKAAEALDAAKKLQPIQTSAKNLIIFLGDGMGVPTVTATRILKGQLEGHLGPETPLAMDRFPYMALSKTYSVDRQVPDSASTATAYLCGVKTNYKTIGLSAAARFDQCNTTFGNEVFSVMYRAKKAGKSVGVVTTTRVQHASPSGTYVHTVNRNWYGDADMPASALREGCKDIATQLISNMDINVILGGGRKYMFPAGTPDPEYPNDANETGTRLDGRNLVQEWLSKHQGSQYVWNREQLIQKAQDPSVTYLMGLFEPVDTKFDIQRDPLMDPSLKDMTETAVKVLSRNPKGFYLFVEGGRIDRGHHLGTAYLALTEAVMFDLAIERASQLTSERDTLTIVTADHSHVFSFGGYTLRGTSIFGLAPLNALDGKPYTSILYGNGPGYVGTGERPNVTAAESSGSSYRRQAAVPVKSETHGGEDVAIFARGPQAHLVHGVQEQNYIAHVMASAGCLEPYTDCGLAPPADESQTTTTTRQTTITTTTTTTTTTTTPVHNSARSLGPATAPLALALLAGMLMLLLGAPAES
Sequence of Neuropeptide Y receptor type 1 (P25929 whole entry): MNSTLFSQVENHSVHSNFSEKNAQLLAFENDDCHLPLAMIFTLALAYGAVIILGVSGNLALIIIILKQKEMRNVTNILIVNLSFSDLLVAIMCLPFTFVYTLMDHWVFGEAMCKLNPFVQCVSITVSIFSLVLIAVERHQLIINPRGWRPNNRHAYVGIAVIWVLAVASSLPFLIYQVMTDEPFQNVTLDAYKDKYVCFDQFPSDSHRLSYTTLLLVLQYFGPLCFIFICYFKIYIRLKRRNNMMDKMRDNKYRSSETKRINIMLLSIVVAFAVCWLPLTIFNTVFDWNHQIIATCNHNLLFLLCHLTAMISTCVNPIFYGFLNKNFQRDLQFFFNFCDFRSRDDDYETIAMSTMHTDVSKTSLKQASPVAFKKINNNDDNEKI
Sequence of Nuclear receptor subfamily 0 group B member 1 (P51843 whole entry): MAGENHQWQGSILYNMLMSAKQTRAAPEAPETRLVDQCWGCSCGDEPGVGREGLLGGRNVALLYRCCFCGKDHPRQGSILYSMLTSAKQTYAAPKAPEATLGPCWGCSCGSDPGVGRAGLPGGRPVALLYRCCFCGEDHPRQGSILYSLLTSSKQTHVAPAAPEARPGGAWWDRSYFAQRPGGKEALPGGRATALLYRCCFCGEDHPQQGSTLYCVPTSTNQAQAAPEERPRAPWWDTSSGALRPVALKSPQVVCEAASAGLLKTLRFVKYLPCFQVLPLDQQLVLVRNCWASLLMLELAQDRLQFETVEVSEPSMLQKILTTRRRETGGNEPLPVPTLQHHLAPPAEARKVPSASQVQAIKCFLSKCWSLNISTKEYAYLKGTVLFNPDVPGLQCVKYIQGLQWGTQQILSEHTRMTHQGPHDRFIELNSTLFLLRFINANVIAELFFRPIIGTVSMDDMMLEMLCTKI
Sequence of sn-1-specific diacylglycerol lipase ABHD11 (Q8K4F5 whole entry): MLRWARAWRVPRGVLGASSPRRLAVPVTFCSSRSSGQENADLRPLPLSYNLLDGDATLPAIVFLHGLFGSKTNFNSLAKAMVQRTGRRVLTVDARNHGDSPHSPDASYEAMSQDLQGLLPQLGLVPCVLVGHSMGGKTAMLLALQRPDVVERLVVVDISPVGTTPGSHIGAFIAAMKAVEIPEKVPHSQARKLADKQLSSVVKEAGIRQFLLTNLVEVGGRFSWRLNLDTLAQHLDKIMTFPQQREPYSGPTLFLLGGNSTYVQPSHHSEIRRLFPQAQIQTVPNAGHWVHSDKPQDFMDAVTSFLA

Which results are given for `O=c1oc(-c2ccc(O)c(O)c2)cc2cc(O)cc(O)c12` [THUNBERGINOL B]?
IC50 [1]: > 67.5 µM (inactive); IC50 [2]: 2.17 µM (active); CC50 [3]: 100 µM (active); IC50 [4]: 20.4 µM (active); IC50 [5]: 19.5 µM (active); IC50 (HEK293): > 67.5 µM (inactive); IC50 [6]: 7.57 µM (active); IC50 [7]: 0.565 µM (active)

What does the source list for `CCc1nnc(NC(=O)c2ccc(NS(=O)(=O)c3ccccc3)cc2)s1`?
AC50 (Trypsin): 45.1 µM (active); AC50 (CAAX prenyl protease 2): 5.24 µM (active); AC50 (CAAX prenyl protease 1): 7.02 µM (active)

For `CCN(CC)S(=O)(=O)c1ccc(Oc2ccc(S(=O)(=O)N(CC)CC)cc2)cc1`, which IC50 (Jurkat) is on record?
Its IC50 is > 80 µM (inactive).

What about the IC50 [8] of the same compound?
The IC50 was > 35 µM (not active).

What about the IC50 [9] of the same compound?
Its IC50 is > 80 µM (inactive).

And the IC50 [10]?
Its IC50 is > 35 µM (not active).

What about the AC50 (INS1) of the same compound?
The AC50 was 2.23 µM (active).

Which IC50 [11] does the source give for `COCC1CCCCN1C(=O)n1ncc(C(O)(c2ccccc2)c2ccccc2)n1` (stereo unspecified) here?
Its IC50 is 0.000137 µM (active).

For `COc1cc(N)c(Cl)cc1C(=O)N[C@H]1CCN(CCCOc2ccc(F)cc2)C[C@H]1OC` [REL-CISAPRIDE], which AC50 (Cytochrome P450 2C9) is on record?
Its AC50 is “inconclusive”.

What about the AC50 (Cytochrome P450 1A2) of the same compound?
The AC50 was “inactive”.

What about the IC50 [12] of the same compound?
The IC50 was > 20 µM (inactive).

What about the AC50 (Cytochrome P450 2C19) of the same compound?
The AC50 was “inactive”.
